Assay results as given in the supplement of paper PMC10307832.

Key:
Ibrutinib + Vorinostat = compound: C=CC(=O)N1CCC[C@@H](n2nc(-c3ccc(Oc4ccccc4)cc3)c3c(N)ncnc32)C1 [Ibrutinib] + O=C(CCCCCCC(=O)Nc1ccccc1)NO [Vorinostat] (partner 1 µM); assay: relative viability (nuclei count vs DMSO), 5 days (fraction); higher = more cells survive
Summary of the method: (§1)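 Relative viability is defined as nuclei in treated wells over nuclei in vehicle wells. Duplicate plates were run and medians reported. Lung cancer cell lines in 1536-well plates were dosed by pin tool one day after seeding, with one drug or with a fixed anchor-drug dose plus five library-drug doses (not always all listed) in √10 steps, and nuclei were counted after 5 days.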

PAC-1 + Crizotinib = compound: C=CCc1cccc(/C=N/NC(=O)CN2CCN(Cc3ccccc3)CC2)c1O [PAC-1] + C[C@@H](Oc1cc(-c2cnn(C3CCNCC3)c2)cnc1N)c1c(Cl)ccc(F)c1Cl [Crizotinib] (partner 1 µM); assay: as above
Summary of the method: as §1

Row | Cell Line | relative viability (Ibrutinib + Vorinostat; first compound 0.005 µM) | relative viability (Ibrutinib + Vorinostat; first compound 0.01581 µM) | relative viability (Ibrutinib + Vorinostat; first compound 0.05 µM) | relative viability (Ibrutinib + Vorinostat; first compound 0.1581 µM) | relative viability (Ibrutinib + Vorinostat; first compound 0.5 µM) | relative viability (PAC-1 + Crizotinib; first compound 0.02 µM) | relative viability (PAC-1 + Crizotinib; first compound 0.06325 µM) | relative viability (PAC-1 + Crizotinib; first compound 0.2 µM) | relative viability (PAC-1 + Crizotinib; first compound 2 µM)
1 | 201T | 0.94 | 0.982 | 0.969 | 0.883 | 0.889 | 1.07 | 1.09 | 1.02 | 1.05
2 | A549 |  |  |  |  |  | 0.747 | 0.793 | 0.706 | 0.77
3 | A-427 | 0.883 | 0.875 | 0.887 |  | 0.867 | 0.896 | 1.01 | 0.797 | 0.836
4 | ABC-1 | 0.795 | 1.05 |  |  | 1.63 | 1.09 | 1.16 | 1.11 | 1.34
5 | BEN | 0.513 | 0.609 | 0.599 | 0.538 | 0.501 | 0.92 | 0.882 | 0.804 | 0.832
6 | CAL-12T | 0.617 | 0.623 | 0.464 | 0.841 | 0.621 | 0.72 | 0.828 | 0.551 | 0.578
7 | COR-L23 | 0.326 | 0.51 | 0.522 | 0.477 | 0.566 | 0.646 | 0.607 | 0.599 | 0.624
8 | COR-L 105 | 0.709 | 0.659 | 0.526 | 0.833 | 0.388 | 0.873 | 0.915 | 0.774 | 0.64
9 | Calu-6 |  |  |  |  |  | 0.728 | 0.823 | 0.8 | 0.867
10 | ChaGo-K-1 | 0.752 | 0.766 | 0.688 | 0.708 | 0.75 | 1.15 | 1.17 | 1.09 | 1.03
11 | EBC-1 |  |  |  |  |  | 0.194 | 0.175 | 0.201 | 0.178
12 | EKVX | 0.811 | 0.549 | 0.633 | 0.657 | 0.365 | 1.19 | 1.22 | 0.893 | 0.866
13 | EMC-BAC-2 | 0.412 | 0.525 |  |  | 0.453 | 0.771 | 0.709 | 0.796 | 0.72
14 | EPLC-272H | 0.248 | 0.4 | 0.31 | 0.597 | 0.401 |  | 0.95 | 0.789 | 0.818
15 | H3255 | 0.889 | 0.725 |  | 0.764 | 0.163 | 0.936 | 0.848 | 0.82 | 0.825
16 | HARA | 0.606 | 0.482 | 0.663 | 0.64 | 0.553 | 0.955 | 1.03 | 1.01 | 1.06
17 | HCC-15 | 0.911 | 0.873 | 0.826 | 0.897 | 0.796 | 0.788 | 0.878 | 0.785 | 0.82
18 | HCC-44 | 1.21 |  | 1.2 | 1.2 | 1.15 | 0.809 | 0.797 | 0.807 | 0.772
19 | HCC-78 |  | 0.403 | 0.405 | 0.446 | 0.388 | 0.343 | 0.34 | 0.362 | 0.337
20 | HCC-366 | 0.396 | 0.387 | 0.306 | 0.443 | 0.404 | 0.542 | 0.479 | 0.454 | 0.591

Row | Cell Line | relative viability (Ibrutinib + Vorinostat; first compound 0.005 µM) | relative viability (Ibrutinib + Vorinostat; first compound 0.01581 µM) | relative viability (Ibrutinib + Vorinostat; first compound 0.05 µM) | relative viability (Ibrutinib + Vorinostat; first compound 0.1581 µM) | relative viability (Ibrutinib + Vorinostat; first compound 0.5 µM) | relative viability (PAC-1 + Crizotinib; first compound 0.02 µM) | relative viability (PAC-1 + Crizotinib; first compound 0.06325 µM) | relative viability (PAC-1 + Crizotinib; first compound 0.2 µM) | relative viability (PAC-1 + Crizotinib; first compound 2 µM)
21 | HCC-827 | 0.916 | 0.943 | 1.06 | 0.875 | 0.861 | 0.982 | 0.943 | 0.875 | 0.889
22 | HOP-62 | 0.529 | 0.701 | 0.557 | 0.778 | 0.71 | 0.844 | 1.01 | 1.02 | 0.954
23 | IA-LM | 1.04 | 0.864 | 0.918 |  | 0.822 | 0.862 | 0.865 | 0.75 | 0.751
24 | LC-2-ad | 0.74 | 0.665 | 0.706 | 0.802 | 0.775 | 0.383 | 0.436 | 0.443 | 0.398
25 | LCLC-97TM1 | 0.702 | 0.798 | 0.718 | 0.897 | 0.691 |  | 0.252 | 0.358 | 0.298
26 | LCLC-103H | 0.776 | 0.878 | 0.777 | 0.782 | 0.754 | 1.07 | 1.15 | 0.974 | 1.02
27 | LK-2 | 0.236 | 0.234 | 0.266 | 0.293 | 0.177 | 0.231 | 0.233 | 0.234 | 0.289
28 | LOU-NH91 | 0.818 | 0.782 | 0.749 | 0.88 | 0.684 | 0.747 | 0.762 | 0.723 | 0.728
29 | LU99A | 0.369 | 0.512 | 0.486 | 0.564 | 0.439 | 0.618 | 0.581 | 0.515 | 0.544
30 | LXF-289 | 0.943 | 0.798 | 0.695 | 0.796 | 0.749 | 0.833 | 0.807 | 0.789 | 0.835
31 | NCI-H23 | 0.467 | 0.527 | 0.514 | 0.605 | 0.594 | 0.481 | 0.396 | 0.489 | 0.535
32 | NCI-H322M | 0.74 | 0.915 | 0.79 | 0.571 | 0.802 | 0.792 | 0.839 | 0.877 | 0.854
33 | NCI-H358 | 0.606 | 0.598 |  | 0.809 | 0.283 | 0.552 | 0.531 | 0.751 | 0.453
34 | NCI-H441 | 0.789 | 0.694 | 1.05 | 0.823 | 0.919 | 0.725 | 0.77 | 0.714 | 0.655
35 | NCI-H460 | 0.855 | 0.667 | 0.695 | 0.794 | 0.781 | 0.887 | 0.805 | 0.823 | 1.07
36 | NCI-H520 | 0.821 | 0.665 | 0.715 | 0.757 | 0.719 | 0.772 | 0.746 | 0.735 | 0.698
37 | NCI-H522 | 0.848 | 0.764 |  | 0.808 | 0.815 |  |  |  | 
38 | NCI-H596 | 0.468 | 0.628 | 0.501 | 0.57 | 0.572 | 0.974 | 0.952 | 0.98 | 1.07
39 | NCI-H647 | 0.569 | 0.472 | 0.695 | 0.645 | 0.67 | 1.06 | 1.12 | 1.03 | 0.812
